{"source": "patent US20060204530A1", "about": "“Benzoyl peroxide compositions and methods of use” (JR CHEM, LLC, priority 2005, published 2006)", "assay": "Solubility of benzoyl peroxide in the disclosed solvents", "type": "physicochemical", "settings": "room temperature", "protocol": "In embodiments, benzoyl peroxide can be added to the solvents to form a mixture at room temperature, e.g., at a temperature of 25 to about 27° C. Additionally, the benzoyl peroxide/solvent mixture also can be added to other ingredients to form desired products, e.g., emulsions, lotions, creams or gels at low temperatures. […] However the key difference between the disclosed prior art and the present compositions is that the benzoyl peroxide will actively go into solution at levels as high as 10% by weight of the total formulation. These solutions can offer new clear products of increased efficacy."}
{"smiles": "O=C(OOC(=O)c1ccccc1)c1ccccc1", "note": "[benzoyl peroxide]", "values": [{"measurement": "level at which benzoyl peroxide goes into solution", "result": "≤ 10 % by weight of the total formulation"}]}
